Reference: publication PMC5546919 (The Journal of organic chemistry, 2010)

What was measured:
Format in all cases: biochemical
[1] = biological target: T1, human 20S proteasome, chymotrypsin-like (CT-L) activity (Homo sapiens, UniProt P28074); assay: Proteasome-Glo luminogenic assay, CT-L substrate
T1 sequence (P28074 60-263): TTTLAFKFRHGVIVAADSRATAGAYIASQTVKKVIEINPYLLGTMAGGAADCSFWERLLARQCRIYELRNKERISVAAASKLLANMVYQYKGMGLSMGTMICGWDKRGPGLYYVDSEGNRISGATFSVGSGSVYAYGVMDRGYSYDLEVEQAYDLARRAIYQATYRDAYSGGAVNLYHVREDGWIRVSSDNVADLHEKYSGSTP

[2] = biological target: T2, human 26S proteasome, chymotrypsin-like (CT-L) activity (Homo sapiens, UniProt P28074); assay: Proteasome-Glo luminogenic assay, CT-L substrate
T2 sequence (P28074 60-263): T1 sequence (P28074 60-263)

[3] = biological target: T3, human 20S proteasome, caspase-like (C-L) activity (Homo sapiens, UniProt P28072); assay: Proteasome-Glo luminogenic assay, C-L substrate
T3 sequence (P28072 35-239): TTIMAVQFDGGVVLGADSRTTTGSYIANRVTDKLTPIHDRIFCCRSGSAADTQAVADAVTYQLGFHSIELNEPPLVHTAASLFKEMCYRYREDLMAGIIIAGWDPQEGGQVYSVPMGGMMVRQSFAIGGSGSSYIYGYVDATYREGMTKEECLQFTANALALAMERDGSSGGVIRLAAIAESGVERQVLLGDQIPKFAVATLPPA

[4] = biological target: T4, human 20S proteasome, trypsin-like (T-L) activity (Homo sapiens, UniProt Q99436); assay: Proteasome-Glo luminogenic assay, T-L substrate
T4 sequence (Q99436 44-277): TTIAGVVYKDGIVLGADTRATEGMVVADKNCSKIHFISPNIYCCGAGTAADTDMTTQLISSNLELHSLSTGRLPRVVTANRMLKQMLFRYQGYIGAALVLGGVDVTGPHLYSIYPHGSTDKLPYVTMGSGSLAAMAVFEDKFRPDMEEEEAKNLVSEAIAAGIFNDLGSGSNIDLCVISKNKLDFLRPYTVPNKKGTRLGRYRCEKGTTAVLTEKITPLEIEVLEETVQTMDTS

[5] = biological target: T5, human 26S proteasome, trypsin-like (T-L) activity (Homo sapiens, UniProt Q99436); assay: Proteasome-Glo luminogenic assay, T-L substrate
T5 sequence (Q99436 44-277): T4 sequence (Q99436 44-277)

[6] = biological target: T6, human 26S proteasome, caspase-like (C-L) activity (Homo sapiens, UniProt P28072); assay: Proteasome-Glo luminogenic assay, C-L substrate
T6 sequence (P28072 35-239): T3 sequence (P28072 35-239)

Structure (SMILES)	IC50 [1]	IC50 [2]	IC50 [3]	IC50 [4]	IC50 [5]	IC50 [6]
CCCCCCC1C(=O)NC2(C(O)C3C=CCCC3)C(=O)OC12C (racemic) [(±)-2, rac-cinnabaramide A]	2.8 ± 0.6 nM	2.2 ± 0.04 nM	125 ± 12 nM	260 ± 29 nM	–	–
C[C@@]12OC(=O)[C@]1([C@@H](O)[C@@H]1C=CCCC1)NC(=O)[C@@H]2CCCl [1a, (−)-salino A]	–	–	111 ± 22 nM	39 ± 7 nM	37 ± 16 nM	156 ± 18 nM
C[C@@]12OC(=O)[C@]1([C@@H](O)[C@@H]1C=CCCC1)NC(=O)[C@@H]2CCCCl [compound 54, (−)-homosalino]	–	–	144 ± 12 nM	118 ± 28 nM	125 ± 30 nM	188 ± 3 nM
